The source made the active and inactive calls. No cut-off for these calls is given here. Where a SMILES comes first, the peptide text is derived from it.
Legend:
[1] = Half life in DTT at 50 uM up up to 120 mins by reverse phase HPLC and UV detection based assay; format: physicochemical
Rattus norvegicus [2] = assay: Anti-colitis activity in Sprague-Dawley rat model of DSS-induced colitis assessed as reduction in disease activity index at 100 mg/kg, po qd for 9 days; format: functional, organism-based
PBMC = assay: Inhibition of IL12-stimulated IFNgamma production in PHA-activated human PBMC at 0.0001 to 100 uM by ELISA; format: functional, cell-based
Rattus norvegicus [3] = assay: Anti-colitis activity in Sprague-Dawley rat model of DSS-induced colitis assessed as change in body weight at 30 mg/kg, po dosed 3 times per day (-6.39 +/- 1.11%); format: functional
Rattus norvegicus [4] = assay: Anti-colitis activity in Sprague-Dawley rat model of DSS-induced colitis assessed as reduction in disease activity index at 30 mg/kg, po dosed 3 times per day; format: functional
Rattus norvegicus [5] = assay: Anti-colitis activity in Sprague-Dawley rat model of DSS-induced colitis assessed as colon weight/colon length ratio at 30 mg/kg, po dosed 3 times per day (124.36 +/- 17.11 g/cm); format: functional
Rattus norvegicus [6] = assay: Anti-colitis activity in Sprague-Dawley rat model of DSS-induced colitis assessed as reduction in colon macroscopic scores at 30 mg/kg, ip dosed 3 times per day; format: functional, organism-based
Rattus norvegicus [7] = assay: Anti-colitis activity in Sprague-Dawley rat model of DSS-induced colitis assessed as reduction in colon macroscopic scores at 30 mg/kg, po dosed 3 times per day; format: functional, organism-based
Rattus norvegicus [8] = assay: Anti-colitis activity in Sprague-Dawley rat model of DSS-induced colitis assessed as improvement in stool consistency scores level at 30 mg/kg, ip dosed 3 times per day; format: functional, organism-based
Rattus norvegicus [9] = assay: Anti-colitis activity in Sprague-Dawley rat model of DSS-induced colitis assessed as improvement in hematocrit scores level at 30 mg/kg, ip dosed 3 times per day; format: functional, organism-based
Rattus norvegicus [10] = assay: Anti-colitis activity in Sprague-Dawley rat model of DSS-induced colitis assessed as improvement in stool consistency scores level at 30 mg/kg, po dosed 3 times per day; format: functional, organism-based
Rattus norvegicus [11] = assay: Anti-colitis activity in Sprague-Dawley rat model of DSS-induced colitis assessed as improvement in hematocrit scores level at 30 mg/kg, po dosed 3 times per day; format: functional, organism-based
Interleukin-23 receptor [12] = molecular target: T1, Interleukin-23 receptor (Homo sapiens, UniProt Q5VWK5); assay: Inhibition of interleukin-23 binding to human interleukin-23 receptor incubated for 2 hrs by competitive binding ELISA
T1 sequence (Q5VWK5 whole entry): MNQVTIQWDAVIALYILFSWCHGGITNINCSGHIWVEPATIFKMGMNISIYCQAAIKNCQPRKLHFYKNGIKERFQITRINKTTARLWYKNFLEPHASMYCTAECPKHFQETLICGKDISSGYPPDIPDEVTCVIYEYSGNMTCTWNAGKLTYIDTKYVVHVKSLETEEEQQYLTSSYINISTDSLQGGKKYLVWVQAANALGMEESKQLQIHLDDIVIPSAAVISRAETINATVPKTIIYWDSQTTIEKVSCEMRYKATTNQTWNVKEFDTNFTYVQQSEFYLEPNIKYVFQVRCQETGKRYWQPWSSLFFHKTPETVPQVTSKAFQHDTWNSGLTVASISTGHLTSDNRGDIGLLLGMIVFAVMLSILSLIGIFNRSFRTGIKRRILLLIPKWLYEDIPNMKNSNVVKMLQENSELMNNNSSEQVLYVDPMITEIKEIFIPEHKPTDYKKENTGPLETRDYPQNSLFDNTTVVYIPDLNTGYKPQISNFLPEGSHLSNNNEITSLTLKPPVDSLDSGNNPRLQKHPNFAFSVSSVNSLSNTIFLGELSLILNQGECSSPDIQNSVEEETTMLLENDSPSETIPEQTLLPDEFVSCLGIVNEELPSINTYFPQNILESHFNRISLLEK

[13] = Inhibition of interleukin-23 binding to rat interleukin-23 receptor incubated for 2 hrs by competitive binding ELISA
Interleukin-23 receptor [14] = molecular target: T2, Interleukin-23 receptor (Mus musculus, UniProt Q8K4B4); assay: Inhibition of interleukin-23 binding to mouse interleukin-23 receptor incubated for 2 hrs by competitive binding ELISA
T2 sequence (Q8K4B4 whole entry): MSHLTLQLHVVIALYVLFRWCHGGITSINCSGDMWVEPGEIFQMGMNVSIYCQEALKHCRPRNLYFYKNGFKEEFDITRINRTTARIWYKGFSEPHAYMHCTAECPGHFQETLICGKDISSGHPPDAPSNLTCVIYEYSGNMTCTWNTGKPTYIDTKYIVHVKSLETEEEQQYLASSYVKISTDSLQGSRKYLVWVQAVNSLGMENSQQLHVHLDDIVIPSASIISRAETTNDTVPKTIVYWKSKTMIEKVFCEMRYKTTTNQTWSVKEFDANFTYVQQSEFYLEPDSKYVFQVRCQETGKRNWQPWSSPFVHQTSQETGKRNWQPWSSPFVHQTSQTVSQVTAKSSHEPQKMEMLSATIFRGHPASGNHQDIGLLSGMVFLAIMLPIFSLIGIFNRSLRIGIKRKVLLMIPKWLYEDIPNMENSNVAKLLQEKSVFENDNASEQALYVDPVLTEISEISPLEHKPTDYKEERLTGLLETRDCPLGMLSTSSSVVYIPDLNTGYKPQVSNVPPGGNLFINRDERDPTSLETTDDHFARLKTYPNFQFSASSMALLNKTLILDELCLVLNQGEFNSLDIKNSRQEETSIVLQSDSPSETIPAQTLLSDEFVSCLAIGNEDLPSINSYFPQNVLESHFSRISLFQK

Interleukin-23 receptor [15] = molecular target: T1, Interleukin-23 receptor; assay: Inhibition of interleukin-23 receptor in human DB cells assessed as reduction in IL-23-stimulated STAT3 phosphorylation incubated for 30 mins by HTRF assay; format: cell-based
[16] = Inhibition of interleukin-23 binding to cynomolgus monkey interleukin-23 receptor incubated for 2 hrs by competitive binding ELISA; parameters: species or system Macaca fascicularis

`CC(=O)N[C@@H](CS)C(=O)N[C@@H](C)C(=O)N[C@@H](CC(=O)O)C(=O)N[C@@H](Cc1c[nH]c2ccccc12)C(=O)N[C@H](C(=O)N[C@@H](Cc1c[nH]c2ccccc12)C(=O)N[C@@H](CS)C(=O)N[C@@H](Cc1ccc(O)cc1)C(=O)N[C@@H](Cc1c[nH]c2ccccc12)C(=O)N[C@@H](Cc1cnc[nH]1)C(=O)N[C@H](C(=O)N[C@@H](Cc1ccccc1)C(=O)NCC(=O)N[C@@H](C)C(=O)N1CC[C@H]1C(=O)N[C@H](CCCCN)C(N)=O)[C@@H](C)O)C(C)C` showed a half-life at 50 µM [1] of 10 to 120 min.

For `O=C(O)c1cc(/N=N/c2ccc(S(=O)(=O)Nc3ccccn3)cc2)ccc1O`, the Activity (Rattus norvegicus [2]) was “Active”.

In the case of `COc1ccc(C[C@H](NC(=O)[C@H]2NC(=O)[C@H](CCC(N)=O)NC(=O)[C@H](Cc3c[nH]c4ccccc34)NC(=O)[C@H]([C@@H](C)O)NC(=O)[C@H](CCC(N)=O)NC(=O)[C@@H](NC(C)=O)C(C)(C)SSC2(C)C)C(=O)N[C@@H](Cc2ccc3ccccc3c2)C(=O)N[C@@](C)(CCCCN)C(=O)N[C@@H](CCC(=O)O)C(=O)N[C@@H](CC(N)=O)C(=O)NCC(N)=O)cc1`, the inhibition (PBMC) is reported as “inactive”, the Activity (Rattus norvegicus [3]) is reported as 0.13% and the Activity_index (Rattus norvegicus [4]) is reported as 0.61. The Ratio (Rattus norvegicus [5]) was 97.36 g/cm, the Activity (Rattus norvegicus [6]) was “Active” and the Activity (Rattus norvegicus [7]) was “Active”. The Activity (Rattus norvegicus [8]) was “Active”, the Activity (Rattus norvegicus [9]) was “Active” and the Activity (Rattus norvegicus [10]) was “Active”. The Activity (Rattus norvegicus [11]) was “Active”.

In the case of `N=C(N)NCCC[C@H](NC(=O)[C@@H](N)CS)C(=O)N[C@@H](CC(=O)O)C(=O)N[C@@H](Cc1c[nH]c2ccccc12)C(=O)N[C@@H](CCC(N)=O)C(=O)N[C@@H](CS)C(=O)N[C@@H](Cc1ccc(O)cc1)C(=O)N[C@@H](Cc1c[nH]c2ccccc12)C(=O)N[C@@H](Cc1cnc[nH]1)C(=O)N[C@@H](CCCCN)C(=O)N[C@@H](Cc1ccccc1)C(=O)NCC(N)=O` (H-CRDWQCYWHKFG-NH2), the IC50 (Interleukin-23 receptor [12]) is reported as 251 to 1000 nM, the IC50 [13] is reported as 251 to 1000 nM and the IC50 (Interleukin-23 receptor [14]) is reported as > 25000 nM.

For `CC(=O)N[C@@H](CS)C(=O)N[C@@H](CCC(N)=O)C(=O)N[C@H](C(=O)N[C@@H](Cc1c[nH]c2ccccc12)C(=O)N[C@@H](CCC(N)=O)C(=O)N[C@@H](CS)C(=O)N[C@@H](Cc1ccc(O)cc1)C(=O)N[C@@H](Cc1c[nH]c2ccccc12)C(=O)N[C@@H](CCCNC(N)=O)C(=O)N[C@@H](CN)C(=O)N[C@@H](Cc1ccccc1)C(=O)NCC(=O)NCCOCC(=O)N[C@H](CCCCN)C(N)=O)[C@@H](C)O`, the IC50 (Interleukin-23 receptor [12]) was 25 to 10000 nM, the IC50 (Interleukin-23 receptor [15]) was 1000 to 10000 nM and the IC50 [13] was 1000 to 10000 nM. The IC50 (Interleukin-23 receptor [14]) was > 25000 nM and the IC50 [16] was 1000 to 10000 nM.

In the case of `CC(=O)N[C@@H](CS)C(=O)N[C@@H](CCCNC(=N)N)C(=O)N[C@H](C(=O)N[C@@H](Cc1c[nH]c2ccccc12)C(=O)N[C@@H](CCC(=O)O)C(=O)N[C@@H](CS)C(=O)N[C@@H](Cc1ccc(O)cc1)C(=O)N[C@@H](Cc1c[nH]c2ccccc12)C(=O)N[C@@H](Cc1cnc[nH]1)C(=O)N[C@@H](CCC(=O)O)C(=O)N[C@@H](Cc1ccccc1)C(=O)NCC(N)=O)[C@@H](C)O` (Ac-CRTWECYWHEFG-NH2), the IC50 (Interleukin-23 receptor [12]) is reported as < 500 nM and the half-life at 50 µM [1] is reported as < 10 min.
